C[C@@H](O)[C@H]1C(=O)N2C(C(=O)[O-])=C(SC3Cn4cnc[n+]4C3)[C@H](C)[C@H]12 (stereo partly drawn)
solubility (mole fraction)
Conditions | in DMF | in DMSO | in NMP | in acetone | in acetonitrile | in ethanol | in ethyl acetate | in isopropanol | in methanol | in n-propanol
283.15 K | 5.8e-05 | – | 7.58e-05 | 1.77e-06 | 3.63e-05 | 1.49e-05 | 5.21e-05 | 6.66e-06 | 1.86e-05 | 1.17e-05
288.15 K | 6.44e-05 | – | 8.14e-05 | 2.51e-06 | 4.07e-05 | 1.76e-05 | 5.73e-05 | 8.24e-06 | 2.19e-05 | 1.37e-05
293.15 K | 7.11e-05 | 7.86e-05 | 8.79e-05 | 3.4e-06 | 4.61e-05 | 2.09e-05 | 6.48e-05 | 9.98e-06 | 2.59e-05 | 1.62e-05
298.15 K | 7.8e-05 | 8.66e-05 | 9.66e-05 | 4.57e-06 | 5.17e-05 | 2.46e-05 | 7.16e-05 | 1.2e-05 | 3.07e-05 | 1.97e-05
303.15 K | 8.72e-05 | 9.47e-05 | 0.000106 | 5.97e-06 | 5.82e-05 | 2.9e-05 | 7.97e-05 | 1.41e-05 | 3.57e-05 | 2.32e-05
308.15 K | 9.65e-05 | 0.000104 | 0.000117 | 8.13e-06 | 6.67e-05 | 3.41e-05 | 8.9e-05 | 1.69e-05 | 4.18e-05 | 2.7e-05
313.15 K | 0.000107 | 0.000116 | 0.000128 | 1.06e-05 | 7.46e-05 | 3.97e-05 | 9.93e-05 | 2e-05 | 4.9e-05 | 3.19e-05
318.15 K | 0.000119 | 0.000129 | 0.000141 | 1.39e-05 | 8.5e-05 | 4.54e-05 | 0.000111 | 2.37e-05 | 5.63e-05 | 3.71e-05
323.15 K | 0.000131 | 0.000142 | 0.000156 | 1.79e-05 | 9.56e-05 | 5.23e-05 | 0.000123 | 2.79e-05 | 6.61e-05 | 4.32e-05

Source: BigSolDB 2.1
